Reference: ChEMBL document CHEMBL1201862, “PubChem BioAssay data set” (2004)
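A five-concentration, 48-hour dose response in 96-well plates underlies each endpoint, interpolated linearly between surrounding concentrations. Here, GI50 denotes the concentration required for 50% inhibition of growth.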 Activity calls are given as the source filed them. No stated cut-off is given here; in the data, active = GI50 up to about 1.1 µM and inactive = higher. Where a SMILES comes first, the peptide text is derived from it. [ ]: non-standard residue; d: D form. The star is where a group is joined. ξ: configuration not given here. ξPhe(4-NO2) = NC(Cc1ccc([N+](=O)[O-])cc1)C(=O)O; Boc = CC(C)(C)OC(=O)*

How the values were obtained:
Experiment in all cases: growth of human tumour cells (NCI), 48 h
[1] = tested on: SF-268
[2] = tested on: T47D
[3] = tested on: IGROV-1
[4] = tested on: OVCAR-3
[5] = tested on: SR
[6] = tested on: RPMI-8226
[7] = tested on: OVCAR-4
[8] = tested on: CCRF-CEM
[9] = tested on: SNB-75
[10] = tested on: UACC-62
[11] = tested on: HOP-92
[12] = tested on: SK-MEL-5
[13] = tested on: MDA-MB-231
[14] = tested on: KM12
[15] = tested on: MCF7
[16] = tested on: LOX IMVI
[17] = tested on: SNB-19
[18] = tested on: OVCAR-8
[19] = tested on: SK-OV-3
[20] = tested on: NCI-H226

Measured: GI50

CCNC(=O)CNC(=O)C(Cc1ccc([N+](=O)[O-])cc1)NC(=O)OC(C)(C)C (stereo not given) (Boc-[ξPhe(4-NO2)]-Gly-NHEt)
inactive: [1] > 100 µM | [2] > 10 µM | [3] > 100 µM | [4] > 100 µM | [5] > 100 µM | [6] > 100 µM | [7] > 100 µM | [8] > 100 µM | [9] > 100 µM | [10] > 100 µM | [11] > 100 µM | [12] > 100 µM | [13] > 100 µM | [14] > 100 µM | [15] > 100 µM | [16] > 100 µM | [17] > 100 µM | [18] > 100 µM | [19] > 100 µM | [20] > 100 µM

O=P1(NCCCl)OCCCN1CCCl (stereo not given) [IFOSFAMIDE]
inactive: [1] 351 µM | [2] > 500 µM | [3] 433 µM | [4] 365 µM | [5] > 500 µM | [6] 332 µM | [7] 415 µM | [8] 207 µM | [9] 334 µM | [10] 363 µM | [11] 333 µM | [12] 398 µM | [13] > 500 µM | [14] 406 µM | [15] 361 µM | [16] 311 µM | [17] 361 µM | [18] 388 µM | [19] 379 µM | [20] 393 µM
